Reference: patent US20060223868A1, “Heterocyclic amides exhibiting and inhibitory activity at the vanilloid receptor 1(vr1)” (AstraZeneca AB, priority 2003, published 2006)

Target: T1, hVR1 (Homo sapiens, UniProt Q8NER1)
T1 construct: expressed in transfected cells
Assay: hVR1 FLIPR (Fluorometric Image Plate Reader) screening assay, IC50 determination
Assay type: cell-based
Settings: transfected CHO cells stably expressing hVR1
Experimental: 1. hVR1 FLIPR (Fluorometric Image Plate Reader) Screening Assay
Transfected CHO cells, stably expessing hVR1 (15,000 cells/well) are seeded in 50 ul media in a black clear bottom 384 plate (Greiner) and grown in a humidified incubator (37° C., 2% CO2), 24-30 hours prior to experiment.
Subsequently, the media is removed from the cell plate by inversion and 2 μM Fluo-4 is added using a multidrop (Labsystems). Following the 40 minutes dye incubation in the dark at 37° C. and 2% CO2, the extracellular dye present is washed away using an EMBLA (Scatron), leaving the cells in 40 ul of assay buffer (1×HBSS, 10 mM D-Glucose, 1 mM CaCl2, 10 mM HEPES, 10×7.5% NaHCO3 and 2.5 mM Probenecid).
FLIPR Assay—IC50 Determination Protocol
For IC50 determinations the fluorescence is read using FLIPR filter 1 (em […]). A cellular baseline recording is taken for 30 seconds, followed by a 20 μl addition of 10, titrated half-log concentrations of the test compound, yielding cellular concentration ranging from 3 μM to 0.1 nM. Data is collected every 2 seconds for a further 5 minutes prior to the addition of a VR1 agonist solution: either 50 nM solution of capsaicin or MES (2-[N-morpholino) ethanesulfonic acid) buffer (pH 5.2), by the FLIPR pipettor. The FLIPR continues to collect data for a further 4 minutes. Compounds having antagonistic properties against the hVR1 will inhibit the increase in intracellular calcium in response to the capsaicin addition. This consequently leading to a reduction in fluorescence signal and providing a reduced fluorescence reading, compared with no compound, buffer controls. Data is exported by the FLIPR program as a sum of fluorescence calculated under the curve upon the addition of capsaicin. Maximum inhibition, Hill slope and IC50 data for each compound are generated.

T1 sequence (Q8NER1 whole entry): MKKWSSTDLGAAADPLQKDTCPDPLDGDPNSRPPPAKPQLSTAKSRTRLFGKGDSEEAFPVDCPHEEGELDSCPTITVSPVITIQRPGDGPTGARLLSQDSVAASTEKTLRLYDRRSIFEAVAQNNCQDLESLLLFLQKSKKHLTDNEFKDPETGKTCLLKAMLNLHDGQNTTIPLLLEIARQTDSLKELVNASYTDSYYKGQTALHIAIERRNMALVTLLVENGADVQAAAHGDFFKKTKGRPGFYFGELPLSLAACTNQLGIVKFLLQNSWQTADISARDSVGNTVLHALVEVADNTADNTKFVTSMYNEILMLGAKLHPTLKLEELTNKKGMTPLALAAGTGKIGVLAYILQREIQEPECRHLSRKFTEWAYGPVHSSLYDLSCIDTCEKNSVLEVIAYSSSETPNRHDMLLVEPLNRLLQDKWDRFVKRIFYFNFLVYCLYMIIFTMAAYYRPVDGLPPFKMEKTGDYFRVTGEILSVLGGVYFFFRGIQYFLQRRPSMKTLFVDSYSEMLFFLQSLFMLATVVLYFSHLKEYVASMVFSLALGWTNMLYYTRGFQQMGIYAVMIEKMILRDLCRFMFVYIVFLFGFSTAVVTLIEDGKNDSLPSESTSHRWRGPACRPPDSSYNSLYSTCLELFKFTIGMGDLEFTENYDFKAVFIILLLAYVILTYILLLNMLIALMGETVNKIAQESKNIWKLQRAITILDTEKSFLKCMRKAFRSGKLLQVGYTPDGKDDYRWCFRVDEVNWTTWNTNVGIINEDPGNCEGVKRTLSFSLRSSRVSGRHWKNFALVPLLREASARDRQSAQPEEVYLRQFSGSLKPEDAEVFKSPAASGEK

Q: For `O=C(Nc1ccc2sc(CO)nc2c1)c1ccc(Br)cc1` [Example 2, 4-Bromo-N-[2-(hydroxymethyl)-1,3-benzothiazol-5-yl]benzamide], which IC50 (agonist H+/MES buffer (pH 5.2)) is on record?
A: Its IC50 is 60 nM.

Q: And the IC50 (agonist capsaicin)?
A: Its IC50 is 10 nM.

Q: What does the source list for `CC(C)Oc1ccc(C(=O)Nc2ccc3sc(CO)nc3c2)cc1` [Example 19, N-[2-(Hydroxymethyl)-1,3-benzothiazol-5-yl]-4-isopropoxybenzamide]?
A: IC50 (agonist H+/MES buffer (pH 5.2)): 45 nM; IC50 (agonist capsaicin): 50 nM

Q: How did the IC50 (agonist capsaicin) turn out when `CC(O)c1nc2cc(NC(=O)c3ccc(C(C)(C)C)cc3)ccc2s1` (centres unmarked) [Example 71, 4-tert-Butyl-N-[2-(1-hydroxyethyl)-1,3-benzothiazol-5-yl]benzamide] was run?
A: Its IC50 is 200 nM.
